Results published in patent US9969741B2, “Pyrazolotriazines as inhibitors of nucleases” (MASARYKOVA UNIVERZITA, priority 2014, dated 2018).
pIC50: −log10 of the molar value.

Target: T1, MUS81/EME1 (Homo sapiens, UniProt Q96NY9)
T1 sequence (Q96NY9 1-551): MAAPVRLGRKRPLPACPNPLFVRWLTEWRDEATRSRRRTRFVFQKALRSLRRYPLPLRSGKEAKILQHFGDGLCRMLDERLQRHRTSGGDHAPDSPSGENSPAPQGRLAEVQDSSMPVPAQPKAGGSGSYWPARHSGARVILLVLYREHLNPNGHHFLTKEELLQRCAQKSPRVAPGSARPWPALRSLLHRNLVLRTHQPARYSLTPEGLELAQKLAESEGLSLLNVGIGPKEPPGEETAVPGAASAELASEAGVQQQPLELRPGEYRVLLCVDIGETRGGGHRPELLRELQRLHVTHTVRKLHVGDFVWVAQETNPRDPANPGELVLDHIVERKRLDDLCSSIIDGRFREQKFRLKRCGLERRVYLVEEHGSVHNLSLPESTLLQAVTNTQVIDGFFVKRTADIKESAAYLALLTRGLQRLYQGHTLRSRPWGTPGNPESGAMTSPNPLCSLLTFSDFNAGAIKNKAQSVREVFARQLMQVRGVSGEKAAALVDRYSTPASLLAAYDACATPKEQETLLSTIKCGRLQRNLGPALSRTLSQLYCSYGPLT
T1 sequence (Q96AY2 1-570 partner): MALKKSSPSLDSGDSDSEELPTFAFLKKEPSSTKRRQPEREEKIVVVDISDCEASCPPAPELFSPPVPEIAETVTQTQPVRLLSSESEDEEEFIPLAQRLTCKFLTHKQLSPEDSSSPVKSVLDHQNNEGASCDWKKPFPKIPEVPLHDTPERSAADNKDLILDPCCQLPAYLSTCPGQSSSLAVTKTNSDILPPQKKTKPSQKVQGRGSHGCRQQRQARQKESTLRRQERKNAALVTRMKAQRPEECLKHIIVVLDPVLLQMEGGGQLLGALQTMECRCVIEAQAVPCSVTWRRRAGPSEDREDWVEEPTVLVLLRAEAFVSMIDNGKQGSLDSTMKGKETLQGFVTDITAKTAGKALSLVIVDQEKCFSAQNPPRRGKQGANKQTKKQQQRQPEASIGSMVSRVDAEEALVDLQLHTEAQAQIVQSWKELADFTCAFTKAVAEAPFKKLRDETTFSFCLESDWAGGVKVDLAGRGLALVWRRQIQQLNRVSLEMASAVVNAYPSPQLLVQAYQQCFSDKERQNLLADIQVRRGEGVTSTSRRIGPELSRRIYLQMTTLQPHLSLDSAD
Experiment: Nuclease inhibition assay, MUS81/EME1 (3′ flap fluorescent DNA substrate, gel readout)
Type: biochemical
Details: 5 nM enzyme, 5 nM 3′ flap substrate, 15 min at 30° C.
Excerpt: In vitro assays were used for the determination of compound's IC50 values for inhibition of individual nucleases, i.e., MUS81/EME1, FEN1, EXO1, and MRE11. To generate IC50 values, concentration of compound was plotted against relative nuclease activity (in %). The dose-response curves were generated from inhibition data, from 5 point serial dilutions of inhibitory compounds, each in triplicate and fitted to a standard sigmoid curve. IC50 values were derived by standard nonlinear regression analysis.
All tested compounds were diluted in 100% DMSO (dimethylsulfoxide) to prepare working stocks with different concentrations. To keep the DMSO concentration constant in every reaction, always 0.5 μl of the compound stock was added to the reaction buffer. The reaction buffer differs depending on the enzyme tested. Also concentration of the compounds in the reaction depends on the particular enzyme, since the inhibitory effect of the compounds vary between the enzymes. Nevertheless, always doubling dilutions in the range 200-0.8 μM was used. The compound was added as the first component in the reaction buffer, followed by the enzyme addition. Short (15 minutes) pre-incubation step followed before the reaction was initiated by addition of DNA substrate (5 nM).
As a negative control, DNA substrate specific for each particular enzyme without the addition of the enzyme and the compound was used. The positive control contained all components of the reaction, except the compound of interest. However, to compensate for solvent effects, DMSO (at a final concentration of 2.5%) was included in the reaction.
For this experiment we prepared short fluorescently labeled oligonucleotide-based DNA substrates with specific structures reflecting the biochemical activities of tested individual nucleases (Table 1). These substrates were prepared by annealing of synthetic oligonucleotides purchased from VBC Biotech. Composition of each substrate is indicated below the table; the corresponding oligonucleotides were combined in equimolar ratios. For visualization, each substrate was labeled by fluorescent dye (fluorescein), which can be detected in the gel using appropriate imaging system (FLA-9000, Fuji) with filters for particular wavelengths (excitation: 485 nm, emission: 535 nm).
Nuclease assays were performed in reaction buffer specific for particular enzyme: MUS81/EME1 (50 mM Tris pH=7.5, 5 mM MgCl2, 1 mM DTT a 100 μg/ml BSA), MRE11 (30 mM Bis-Tris pH=7.0, 50 μg/ml BSA, 1 mM DTT a 250 μM MnCl2), EXO1 and FEN1 (50 mM Tris pH=7.5, 1 mM MgCl2, 1 mM DTT a 100 μg/ml BSA). The individual reactions were prepared by mixing with highly purified enzyme (MUS81/EME1 (5 nM), MRE11 (5 nM), EXO1 (5 nM) or FEN1 (10 nM); purification protocols described below), and different concentration of inhibitor (mentioned above) in corresponding reaction buffer. The final volume of the reaction was 20 μl. After short pre-incubation (15 minutes at room temperature), the reaction was initiated by addition of 5 nM of corresponding fluorescently labeled DNA substrate (3′ flap for MUS81/EME1, 5′ flap for MRE11 and FEN1, 3′ OH for EXO1; see FIG. 1) and incubated for 15 minutes at 30° C. Next, the reaction was stopped and deproteinized by addition of 2 μl of stop buffer, containing 0.1% SDS and 500 μg/ml proteinase K, and incubated for additional 5 minutes at 30° C. Then the loading dye, containing glycerol (60% glycerol, 10 mM Tris pH=7.4, 60 mM EDTA a 0.1% Orange G), was added to each reaction ( 1/10 of the reaction volume), and the whole mixture was subjected to electrophoresis in 10% polyacrylamide native gel (110 V, 40 min, 1× TBE). Fluorescently labeled DNA was detected by FLA-9000 scanner (Fuji) and the result was evaluated using Multi-Gauge V3.2 software (Fuji).
The Mus81/Eme1 expression construct was a kind gift from Dr. Steve West (Cancer Research UK). Briefly, the nuclease complex was purified as follows. […]

With `Nc1c(-c2nc3ccccc3[nH]2)nnc2cc(-c3ccccc3Cl)nn12` [Preparative Example 5G] as the molecule, how does the pIC50 read?
The pIC50 was over 4.30.

With `CCc1nn2c(O)c(-c3nc4cc(C)c(C)cc4[nH]3)nnc2c1-c1ccc(F)cc1` [Preparative Example 21] as the molecule, how does the pIC50 read?
The pIC50 was over 5.00.

With `CCc1nn2c(N)c(-c3nc4ccccc4n3Cc3ccccc3)nnc2c1-c1ccc(F)cc1` [Preparative Example 5M] as the molecule, how does the pIC50 read?
Its pIC50 is over 4.30.

With `Nc1c(-c2nc3ccccc3[nH]2)nnc2ccnn12` [Preparative Example 5O] as the molecule, how does the pIC50 read?
The pIC50 was under 4.30.

With `Nc1c(-c2nc3ccccc3[nH]2)nnc2c(-c3ccc(F)cc3)cnn12` [Preparative Example 5P] as the molecule, how does the pIC50 read?
The pIC50 was under 4.30.

With `CS(=O)(=O)c1ccc(-c2cnn3c(O)c(-c4nc5ccccc5n4Cc4ccccc4)nnc23)cc1` [Preparative Example 17A] as the molecule, how does the pIC50 read?
Its pIC50 is over 5.00.

With `CCc1nn2c(N)c(-c3nc4ccccc4[nH]3)nnc2c1-c1cccc(C(=O)OC)c1` [Preparative Example 5Z] as the molecule, how does the pIC50 read?
Its pIC50 is over 5.00.

With `CCc1nn2c(O)c(-c3nc4ccccc4[nH]3)nnc2c1-c1ccc(F)cc1` [Preparative Example 8A] as the molecule, how does the pIC50 read?
The pIC50 was over 5.00.

With `CCc1cc2nnc(-c3nc4ccccc4n3Cc3ccccc3)c(N)n2n1` [Preparative Example 5N] as the molecule, how does the pIC50 read?
The pIC50 was over 4.30.

With `CCc1nn2c(N)c(-c3nc4ccccc4[nH]3)nnc2c1-c1cccc(-c2ccccc2)c1` [Preparative Example 5Y] as the molecule, how does the pIC50 read?
The pIC50 was over 5.00.

With `Cn1ccc(-c2cnn3c(O)c(-c4nc5ccccc5[nH]4)nnc23)n1` [Preparative Example 18B] as the molecule, how does the pIC50 read?
Its pIC50 is over 4.30.

With `CCc1nn2c(N)c(C(N)=O)nnc2c1-c1ccc(F)cc1` [Preparative Example 12] as the molecule, how does the pIC50 read?
Its pIC50 is under 4.30.

With `CS(=O)(=O)c1ccc(-c2cnn3c(O)c(-c4nc5ccccc5[nH]4)nnc23)cc1` [Preparative Example 18A] as the molecule, how does the pIC50 read?
The pIC50 was over 5.00.

With `Nc1c(-c2nc3ccccc3[nH]2)nnc2cc(CO)nn12` [Preparative Example 6] as the molecule, how does the pIC50 read?
The pIC50 was under 4.30.

With `CCc1cc2nnc(-c3nc4ccccc4[nH]3)c(N)n2n1` [Preparative Example 5B] as the molecule, how does the pIC50 read?
Its pIC50 is over 4.30.

With `CC(C)(C)c1cc2nnc(-c3nc4ccccc4[nH]3)c(N)n2n1` [Preparative Example 5F] as the molecule, how does the pIC50 read?
Its pIC50 is over 4.30.

With `CCc1nn2c(N)c(C#N)nnc2c1-c1ccc(F)cc1` [Preparative Example 11] as the molecule, how does the pIC50 read?
The pIC50 was under 4.30.

With `CCc1nn2c(N)c(-c3nc4ccccc4[nH]3)nnc2c1-c1cccc(C(=O)O)c1` [Preparative Example 5Zb] as the molecule, how does the pIC50 read?
Its pIC50 is over 5.00.

With `O=[N+]([O-])c1ccc(-c2cnn3c(O)c(-c4nc5ccccc5n4Cc4ccccc4)nnc23)cc1` [Preparative Example 17B] as the molecule, how does the pIC50 read?
The pIC50 was over 5.00.

With `Oc1c(-c2nc3ccccc3n2Cc2ccccc2)nnc2c(-c3ccsc3)cnn12` [Preparative Example 17C] as the molecule, how does the pIC50 read?
The pIC50 was over 4.30.

With `Cn1ccc(-c2cnn3c(O)c(-c4nc5ccccc5n4Cc4ccccc4)nnc23)n1` [Preparative Example 17E] as the molecule, how does the pIC50 read?
Its pIC50 is over 4.30.

With `CC(C)c1nn2c(N)c(-c3nc4ccccc4[nH]3)nnc2c1-c1ccc(F)cc1` [Preparative Example 5D] as the molecule, how does the pIC50 read?
Its pIC50 is over 4.30.

With `Oc1c(-c2nc3ccccc3n2Cc2ccccc2)nnc2c(-c3ccncc3)cnn12` [Preparative Example 17D] as the molecule, how does the pIC50 read?
Its pIC50 is over 5.00.

Test system: not given
Experiment: not given
Details: not given

Which melting point does the source give for `CCc1nn2c(N)c(-c3nc4ccccc4[nH]3)nnc2c1Br` [Preparative Example 13] here?
The melting point was over 250 °C.

For `Nc1c(-c2nc3ccccc3[nH]2)nnc2cc(-c3ccccc3-c3ccccc3)nn12` [Preparative Example 5L], which melting point is on record?
The melting point was over 250 °C.

Which melting point does the source give for `CCc1nn2c(N)c(C#N)nnc2c1-c1ccc(F)cc1` [Preparative Example 11] here?
The melting point was > 215 °C (dec.).

Which melting point does the source give for `CC(C)(C)[Si](OCc1cc2nnc(-c3nc4ccccc4[nH]3)c(N)n2n1)(c1ccccc1)c1ccccc1` here?
Its melting point is 233.5 to 234 °C.

For `Nc1c(-c2nc3ccccc3[nH]2)nnc2cc(C=O)nn12` [Preparative Example 7], which melting point is on record?
The melting point was over 250 °C.
